# Counter-ions that a name gives are not always drawn.
# Molecular target: human TRPV1 (Homo sapiens (Human), UniProt Q8NER1)
# Settings: read-out: IC50 (μM), antagonist effect against human TRPV1; CHO cells expressing human TrpV1; stimulated with 2.5 μM NADA (EC80); mean of at least three independent experiments
# human TRPV1, sequence (Q8NER1 whole entry): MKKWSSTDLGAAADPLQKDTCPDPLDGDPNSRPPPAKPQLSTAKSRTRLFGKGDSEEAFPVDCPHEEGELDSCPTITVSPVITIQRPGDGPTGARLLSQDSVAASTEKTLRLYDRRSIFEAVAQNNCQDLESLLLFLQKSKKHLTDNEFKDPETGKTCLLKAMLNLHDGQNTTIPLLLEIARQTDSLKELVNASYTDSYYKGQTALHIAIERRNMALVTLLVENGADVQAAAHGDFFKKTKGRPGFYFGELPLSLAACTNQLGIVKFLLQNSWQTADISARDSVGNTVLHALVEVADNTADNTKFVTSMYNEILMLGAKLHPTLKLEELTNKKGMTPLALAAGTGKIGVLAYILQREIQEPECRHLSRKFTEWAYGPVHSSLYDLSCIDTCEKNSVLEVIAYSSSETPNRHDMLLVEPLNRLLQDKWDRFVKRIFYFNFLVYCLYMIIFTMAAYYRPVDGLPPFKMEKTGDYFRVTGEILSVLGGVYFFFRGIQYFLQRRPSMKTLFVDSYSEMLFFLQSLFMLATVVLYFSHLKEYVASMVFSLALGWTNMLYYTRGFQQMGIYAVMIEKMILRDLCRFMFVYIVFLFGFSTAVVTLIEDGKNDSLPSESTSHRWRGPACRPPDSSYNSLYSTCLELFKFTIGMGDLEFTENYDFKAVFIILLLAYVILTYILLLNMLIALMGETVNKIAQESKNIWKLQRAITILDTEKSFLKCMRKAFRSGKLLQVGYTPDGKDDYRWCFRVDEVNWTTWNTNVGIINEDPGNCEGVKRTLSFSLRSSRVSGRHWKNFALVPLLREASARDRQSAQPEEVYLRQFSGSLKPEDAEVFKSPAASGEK
row,Compound,IC50 [µM]
1,"Fc1ccc2cnccc2c1CN[C@H]1C[C@H](Oc2cccc(S(F)(F)(F)(F)F)c2)C1 [Example 33, (1r,3r)-N-((6-fluoroisoquinolin-5-yl)methyl)-3-(3-(pentafluoro-λ^6-sulfaneyl)phenoxy)cyclobutan-1-amine, HCl]",0.0154
2,"CCOC(=O)c1cccc(O[C@H]2C[C@H](NCc3c(F)ccc4cnccc34)C2)c1 [Example 34, ethyl 3-((1r,3r)-3-(((6-fluoroisoquinolin-5-yl)methyl)amino)cyclobutoxy)benzoate, HCl]",0.0836
3,"Fc1cccc(O[C@H]2C[C@H](NCc3c(F)ccc4cnccc34)C2)c1F [Example 35, (1r,3r)-3-(2,3-difluorophenoxy)-N-((6-fluoroisoquinolin-5-yl)methyl)cyclobutan-1-amine]",0.128
4,"Fc1ccc2cnccc2c1CN[C@H]1C[C@H](Oc2ccc(OC(F)(F)F)cc2)C1 [Example 36, (1r,3r)-N-((6-fluoroisoquinolin-5-yl)methyl)-3-(4-(trifluoromethoxy)phenoxy)cyclobutan-1-amine, HCl]",0.0989
5,"Fc1ccc2cnccc2c1CN[C@H]1C[C@H](Oc2cccc(OC(F)(F)F)c2)C1 [Example 37, (1r,3r)-N-((6-fluoroisoquinolin-5-yl)methyl)-3-(3-(trifluoromethoxy)phenoxy)cyclobutan-1-amine, HCl]",0.0813
6,"Fc1ccc(O[C@H]2C[C@H](NCc3c(F)ccc4cnccc34)C2)cc1OC(F)(F)F [Example 38, (1r,3r)-3-(4-fluoro-3-(trifluoromethoxy)phenoxy)-N-((6-fluoroisoquinolin-5-yl)methyl)cyclobutan-1-amine, HCl]",0.0514
7,"Fc1ccc2cnccc2c1CN[C@H]1C[C@H](Oc2ccc3c(c2)OC(F)(F)C(F)(F)O3)C1 [Example 39, (1r,3r)-N-((6-fluoroisoquinolin-5-yl)methyl)-3-((2,2,3,3-tetrafluoro-2,3-dihydrobenzo[b][1,4]dioxin-6-yl)oxy)cyclobutan-1-amine, HCl]",0.0108
8,"FCC(F)c1cc(O[C@H]2C[C@H](NCc3c(F)ccc4cnccc34)C2)ccc1F (some centres unmarked) [Example 40, (1r,3r)-3-(3-(1,2-difluoroethyl)-4-fluorophenoxy)-N-((6-fluoroisoquinolin-5-yl)methyl)cyclobutan-1-amine]",0.124
9,"FCc1cc(O[C@H]2C[C@H](NCc3c(F)ccc4cnccc34)C2)ccc1F [Example 41, (1r,3r)-3-(4-fluoro-3-(fluoromethyl)phenoxy)-N-((6-fluoroisoquinolin-5-yl)methyl)cyclobutan-1-amine, HCl]",0.09
10,"Fc1ccc2cnccc2c1CN[C@H]1C[C@H](Oc2ccc(C3CC3(F)F)cc2)C1 (some centres unmarked) [Example 42, (1r,3r)-3-(4-(2,2-difluorocyclopropyl)phenoxy)-N-((6-fluoroisoquinolin-5-yl)methyl)cyclobutan-1-amine, HCO2H]",0.173
11,"CC(C)c1cc(O[C@H]2C[C@H](NCc3cccc4cnccc34)C2)ccc1F [Example 43, (1r,3r)-3-(4-fluoro-3-isopropylphenoxy)-N-(isoquinolin-5-ylmethyl)cyclobutan-1-amine, HCl]",0.528
12,"Fc1ccc2cnccc2c1CN[C@H]1C[C@H](Oc2cccc(C3(C(F)(F)F)CCO3)c2)C1 (some centres unmarked) [Example 44, (1r,3r)-N-((6-fluoroisoquinolin-5-yl)methyl)-3-(3-(2-(trifluoromethyl)oxetan-2-yl)phenoxy)cyclobutan-1-amine]",0.0326
13,"CC(C)(C)c1c(F)cc(O[C@H]2C[C@H](NCc3c(F)cc(CO)c4cnccc34)C2)cc1F [Example 45, (5-((((1r,3r)-3-(4-(tert-butyl)-3,5-difluorophenoxy)cyclobutyl)amino)methyl)-6-fluoroisoquinolin-8-yl)methanol]",0.0188
14,"Fc1ccc2cnccc2c1CN[C@H]1C[C@H](Oc2ccc3c(c2)OC(F)(F)O3)C1 [Example 46, (1r,3r)-3-((2,2-difluorobenzo[d][1,3]dioxol-5-yl)oxy)-N-((6-fluoroisoquinolin-5-yl)methyl)cyclobutan-1-amine, HCl]",0.0402
15,"OCc1cc(F)c(CN[C@H]2C[C@H](Oc3ccc4c(c3)OC(F)(F)O4)C2)c2ccncc12 [Example 47, (5-((((1r,3r)-3-((2,2-difluorobenzo[d][1,3]dioxol-5-yl)oxy)cyclobutyl)amino)methyl)-6-fluoroisoquinolin-8-yl)methanol, HCl]",0.0238
16,"COc1c(F)cc(O[C@H]2C[C@H](NCc3c(F)cc(CO)c4cnccc34)C2)cc1F [Example 48, (5-((((1r,3r)-3-(3,5-difluoro-4-methoxyphenoxy)cyclobutyl)amino)methyl)-6-fluoroisoquinolin-8-yl)methanol]",0.0345
17,"COc1c(F)cc(O[C@H]2C[C@H](NCc3c(F)ccc4cnccc34)C2)cc1F [Example 49, (1r,3r)-3-(3,5-difluoro-4-methoxyphenoxy)-N-((6-fluoroisoquinolin-5-yl)methyl)cyclobutan-1-amine]",0.0163
18,"Fc1ccc(O[C@H]2C[C@H](NCc3c(F)ccc4cnccc34)C2)cc1OC(F)F [Example 50, (1r,3r)-3-(3-(difluoromethoxy)-4-fluorophenoxy)-N-((6-fluoroisoquinolin-5-yl)methyl)cyclobutan-1-amine]",0.0806

row,Compound,IC50 [µM]
1,"Fc1cc(O[C@H]2C[C@H](NCc3c(F)ccc4cnccc34)C2)ccc1OC(F)F [Example 51, (1r,3r)-3-(4-(difluoromethoxy)-3-fluorophenoxy)-N-((6-fluoroisoquinolin-5-yl)methyl)cyclobutan-1-amine]",0.117
2,"Cc1c(F)cc(O[C@H]2C[C@H](NCc3c(F)ccc4cnccc34)C2)cc1F [Example 52, (1r,3r)-3-(3,5-difluoro-4-methylphenoxy)-N-((6-fluoroisoquinolin-5-yl)methyl)cyclobutan-1-amine]",0.0271
3,"Cc1c(F)cc(O[C@H]2C[C@H](NCc3c(F)cc(CO)c4cnccc34)C2)cc1F [Example 53, (5-((((1r,3r)-3-(3,5-difluoro-4-methylphenoxy)cyclobutyl)amino)methyl)-6-fluoroisoquinolin-8-yl)methanol]",0.0769
4,"Cc1cc(O[C@H]2C[C@H](NCc3c(F)ccc4cnccc34)C2)cc(F)c1F [Example 54, (1r,3r)-3-(3,4-difluoro-5-methylphenoxy)-N-((6-fluoroisoquinolin-5-yl)methyl)cyclobutan-1-amine]",0.0595
5,"Fc1ccc(O[C@H]2C[C@H](NCc3c(F)ccc4cnccc34)C2)c(F)n1 [Example 55, (1r,3r)-3-((2,6-difluoropyridin-3-yl)oxy)-N-((6-fluoroisoquinolin-5-yl)methyl)cyclobutan-1-amine]",0.352
6,"Fc1ccc2cnccc2c1CN[C@H]1C[C@H](Oc2ccnc(C(F)(F)F)c2)C1 [Example 56, (1r,3r)-N-((6-fluoroisoquinolin-5-yl)methyl)-3-((2-(trifluoromethyl)pyridin-4-yl)oxy)cyclobutan-1-amine]",0.119
7,"Fc1cc(O[C@H]2C[C@H](NCc3c(F)ccc4cnccc34)C2)cnc1F [Example 57, (1r,3r)-3-((5,6-difluoropyridin-3-yl)oxy)-N-((6-fluoroisoquinolin-5-yl)methyl)cyclobutan-1-amine]",0.656
8,"Fc1ccc2cnccc2c1CN[C@H]1C[C@H](Oc2ccc(C(F)(F)F)nc2F)C1 [Example 58, (1r,3r)-3-((2-fluoro-6-(trifluoromethyl)pyridin-3-yl)oxy)-N-((6-fluoroisoquinolin-5-yl)methyl)cyclobutan-1-amine]",0.0829
9,"N#Cc1cc(O[C@H]2C[C@H](NCc3c(F)ccc4cnccc34)C2)ccc1C(F)(F)F [Example 59, 5-((1r,3r)-3-(((6-fluoroisoquinolin-5-yl)methyl)amino)cyclobutoxy)-2-(trifluoromethyl)benzonitrile]",0.0758
10,"CCOC(=O)c1cc(O[C@H]2C[C@H](NCc3c(F)ccc4cnccc34)C2)ccc1C(F)(F)F [Example 60, ethyl 5-((1r,3r)-3-(((6-fluoroisoquinolin-5-yl)methyl)amino)cyclobutoxy)-2-(trifluoromethyl)benzoate]",0.32
11,"N#Cc1c(O[C@H]2C[C@H](NCc3c(F)ccc4cnccc34)C2)cccc1C(F)(F)F [Example 61, 2-((1r,3r)-3-(((6-fluoroisoquinolin-5-yl)methyl)amino)cyclobutoxy)-6-(trifluoromethyl)benzonitrile]",0.194
12,"Fc1ccc2cnccc2c1CN[C@H]1C[C@H](Oc2cnc(Cl)c(C(F)(F)F)c2)C1 [Example 62, (1r,3r)-3-((6-chloro-5-(trifluoromethyl)pyridin-3-yl)oxy)-N-((6-fluoroisoquinolin-5-yl)methyl)cyclobutan-1-amine]",0.336
13,"Fc1ccc(NC2CC(NCc3c(F)ccc4cnccc34)C2)cc1C(F)(F)F (centres unmarked) [Example 63, N^1-(4-fluoro-3-(trifluoromethyl)phenyl)-N^3-((6-fluoroisoquinolin-5-yl)methyl)cyclobutane-1,3-diamine]",0.0986
14,"Fc1cc(CO[C@H]2C[C@H](NCc3c(F)ccc4cnccc34)C2)ccc1C(F)(F)F [Example 64, (1r,3r)-3-((3-fluoro-4-(trifluoromethyl)benzyl)oxy)-N-((6-fluoroisoquinolin-5-yl)methyl)cyclobutan-1-amine]",0.163
15,"O=C(Cc1cccc2cnccc12)N[C@H]1C[C@H](Oc2ccc(F)c(C(F)(F)F)c2)C1 [Example 65, N-((1r,3r)-3-(4-fluoro-3-(trifluoromethyl)phenoxy)cyclobutyl)-2-(isoquinolin-5-yl)acetamide]",0.00098
16,"CS(=O)(=O)NCC(O)c1cc(F)c(CN[C@H]2C[C@H](Oc3ccc(F)c(C(F)(F)F)c3)C2)c2ccncc12 (some centres unmarked) [Example 66, N-(2-(6-fluoro-5-((((1r,3r)-3-(4-fluoro-3-(trifluoromethyl)phenoxy)cyclobutyl)amino)methyl)isoquinolin-8-yl)-2-hydroxyethyl)methanesulfonamide]",1.11
17,"NS(=O)(=O)NCC(O)c1cc(F)c(CN[C@H]2C[C@H](Oc3ccc(F)c(C(F)(F)F)c3)C2)c2ccncc12 (some centres unmarked) [Example 67, N-(2-(6-fluoro-5-((((1r,3r)-3-(4-fluoro-3-(trifluoromethyl)phenoxy)cyclobutyl)amino)methyl)isoquinolin-8-yl)-2-hydroxyethyl) sulfuric diamide]",0.00377

# From patent US11845730B2, “1,3-substituted cyclobutyl derivatives and uses thereof” (Novartis AG, priority 2021, dated 2023)
